What follows are compounds tested against T1, JNK1 (Homo sapiens, UniProt P45983) (assay: JNK1 biochemical assays (one or more of: time resolved fluorescence, Z'-LYTE Cascade, radioactive)). Conditions: Table 2; JNK1 IC50 activity level; read-out: Act. Level.
T1 construct: purchased Carna Biosciences
T1 sequence (P45983 whole entry): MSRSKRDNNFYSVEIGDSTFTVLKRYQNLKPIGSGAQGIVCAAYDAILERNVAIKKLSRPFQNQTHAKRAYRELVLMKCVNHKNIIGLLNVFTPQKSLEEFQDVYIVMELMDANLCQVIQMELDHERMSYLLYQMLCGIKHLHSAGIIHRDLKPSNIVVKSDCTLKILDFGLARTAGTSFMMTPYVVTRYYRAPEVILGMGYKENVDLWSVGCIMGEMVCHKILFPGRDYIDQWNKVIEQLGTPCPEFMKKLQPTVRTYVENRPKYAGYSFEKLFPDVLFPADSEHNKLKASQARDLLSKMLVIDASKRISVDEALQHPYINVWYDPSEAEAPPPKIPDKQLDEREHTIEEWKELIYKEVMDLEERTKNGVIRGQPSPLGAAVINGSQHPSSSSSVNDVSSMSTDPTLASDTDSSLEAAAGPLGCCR

CS(=O)(=O)N[C@H]1CC[C@H](Nc2ncc(C(N)=O)c(Nc3ccccc3)n2)CC1 [Example B-5, 2-((1r,4r)-4-(methylsulfonamido)cyclohexylamino)-4-(phenylamino)pyrimidine-5-carboxamide] and CC(=O)N[C@H]1CC[C@H](Nc2ncc(C(N)=O)c(Nc3ccccc3)n2)CC1 [Example B-6, 2-((1r,4r)-4-acetamidocyclohexylamino)-4-(phenylamino)pyrimidine-5-carboxamide] cannot be ordered by IC50: < 0.2 µM for the first, < 0.2 µM for the second.

NC(=O)c1cnc(N[C@H]2CC[C@H](N)CC2)nc1Nc1ccccc1 [Example B-7, 2-((1r,4r)-4-aminocyclohexylamino)-4-(phenylamino)pyrimidine-5-carboxamide] and CC1CCC(Nc2ncc(C(N)=O)c(Nc3ccccc3)n2)CC1 (stereo not drawn) [Example B-47, 2-(4-methylcyclohexylamino)-4-(phenylamino)pyrimidine-5-carboxamide] cannot be ordered by IC50: < 0.2 µM for the first, < 0.2 µM for the second.

CNC(=O)[C@H]1CC[C@H](Nc2ncc(C(N)=O)c(Nc3ccccc3)n2)CC1 [Example B-8, 2-((1r,4r)-4-(methylcarbamoyl)cyclohexylamino)-4-(phenylamino)pyrimidine-5-carboxamide] and NC(=O)c1cnc(NC2CC2)nc1Nc1ccccc1 [Example B-36, 2-(cyclopropylamino)-4-(phenylamino)pyrimidine-5-carboxamide] cannot be ordered by IC50: < 0.2 µM for the first, < 0.2 µM for the second.

First: NC(=O)c1cnc(NC2CCNCC2)nc1Nc1ccccc1 [Example B-9, 4-(phenylamino)-2-(piperidin-4-ylamino)pyrimidine-5-carboxamide]
Second: NC(=O)c1cnc(NC2CCCC2)nc1Nc1ccccc1 [Example B-44, 2-(cyclopentylamino)-4-(phenylamino)pyrimidine-5-carboxamide]
The IC50 of the first is higher: 1 to 10 µM for the first, < 0.2 µM for the second. The second is the more potent here.

First: CC(=O)N1CCC(Nc2ncc(C(N)=O)c(Nc3ccccc3)n2)CC1 [Example B-10, 2-(1-acetylpiperidin-4-ylamino)-4-(phenylamino)pyrimidine-5-carboxamide]
Second: CCOC(=O)N1CCC(Nc2ncc(C(N)=O)c(Nc3ccccc3)n2)CC1 [Example B-48, ethyl 4-(5-carbamoyl-4-(phenylamino)pyrimidin-2-ylamino)piperidine-1-carboxylate]
The IC50 of the first is higher: 1 to 10 µM for the first, < 0.2 µM for the second.

NC(=O)c1cnc(NC2CCOCC2)nc1Nc1ccccc1 [Example B-11, 4-(phenylamino)-2-(tetrahydro-2H-pyran-4-ylamino)pyrimidine-5-carboxamide] and NC(=O)c1cnc(NC2CCCCC2)nc1Nc1ccccc1 [Example B-45, 2-(cyclohexylamino)-4-(phenylamino)pyrimidine-5-carboxamide] cannot be ordered by IC50: < 0.2 µM for the first, < 0.2 µM for the second.

CC(C)(C)Nc1ncc(C(N)=O)c(Nc2ccccc2)n1 [Example B-12, 2-(tert-butylamino)-4-(phenylamino)pyrimidine-5-carboxamide] and CCC(C)Nc1ncc(C(N)=O)c(Nc2ccccc2)n1 (stereo not drawn) [Example B-46, 2-(sec-butylamino)-4-(phenylamino)pyrimidine-5-carboxamide] cannot be ordered by IC50: < 0.2 µM for the first, < 0.2 µM for the second.

CCN(CC)c1ccc(Nc2ncc(C(N)=O)c(Nc3ccccc3)n2)cc1 [Example B-13, 2-(4-(diethylamino)phenylamino)-4-(phenylamino)pyrimidine-5-carboxamide] and Cc1cccc(Nc2ncc(C(N)=O)c(Nc3ccccc3)n2)c1 [Example B-28, 4-(phenylamino)-2-(m-tolylamino)pyrimidine-5-carboxamide] cannot be ordered by IC50: < 0.2 µM for the first, < 0.2 µM for the second.

COc1ccccc1Nc1ncc(C(N)=O)c(Nc2ccccc2)n1 [Example B-15, 2-(2-methoxyphenylamino)-4-(phenylamino)pyrimidine-5-carboxamide] and Cc1ccccc1Nc1ncc(C(N)=O)c(Nc2ccccc2)n1 [Example B-30, 4-(phenylamino)-2-(o-tolylamino)pyrimidine-5-carboxamide] cannot be ordered by IC50: < 0.2 µM for the first, < 0.2 µM for the second.

COc1ccc(Nc2ncc(C(N)=O)c(Nc3ccccc3)n2)cn1 [Example B-16, 2-(6-methoxypyridin-3-ylamino)-4-(phenylamino)pyrimidine-5-carboxamide] and COc1cccc(Nc2ncc(C(N)=O)c(Nc3ccccc3)n2)c1 [Example B-25, 2-(3-methoxyphenylamino)-4-(phenylamino)pyrimidine-5-carboxamide] cannot be ordered by IC50: < 0.2 µM for the first, < 0.2 µM for the second.

COc1ccc(Nc2ncc(C(N)=O)c(Nc3ccccc3)n2)c(C)c1 [Example B-18, 2-(4-methoxy-2-methylphenylamino)-4-(phenylamino)pyrimidine-5-carboxamide] and COc1ccc(C)c(Nc2ncc(C(N)=O)c(Nc3ccccc3)n2)c1 [Example B-34, 2-(5-methoxy-2-methylphenylamino)-4-(phenylamino)pyrimidine-5-carboxamide] cannot be ordered by IC50: < 0.2 µM for the first, < 0.2 µM for the second.

COc1cc(Nc2ncc(C(N)=O)c(Nc3ccccc3)n2)cc(OC)c1OC [Example B-19, 4-(phenylamino)-2-(3,4,5-trimethoxyphenylamino)pyrimidine-5-carboxamide] and COc1cc(Nc2ncc(C(N)=O)c(Nc3ccccc3)n2)cc(OC)c1 [Example B-23, 2-(3,5-dimethoxyphenylamino)-4-(phenylamino)pyrimidine-5-carboxamide] cannot be ordered by IC50: < 0.2 µM for the first, < 0.2 µM for the second.

COc1ccc(Nc2ncc(C(N)=O)c(Nc3ccccc3)n2)c(OC)c1 [Example B-20, 2-(2,4-dimethoxyphenylamino)-4-(phenylamino)pyrimidine-5-carboxamide] and COc1ccc(Nc2ncc(C(N)=O)c(Nc3ccccc3)n2)cc1F [Example B-27, 2-(3-fluoro-4-methoxyphenylamino)-4-(phenylamino)pyrimidine-5-carboxamide] cannot be ordered by IC50: < 0.2 µM for the first, < 0.2 µM for the second.

First: Cc1ccnc(Nc2ncc(C(N)=O)c(Nc3ccccc3)n2)n1 [Example B-21, 2-(4-methylpyrimidin-2-ylamino)-4-(phenylamino)pyrimidine-5-carboxamide]
Second: Cc1cc(Nc2ncc(C(N)=O)c(Nc3ccccc3)n2)n[nH]1 [Example B-33, 2-(5-methyl-1H-pyrazol-3-ylamino)-4-(phenylamino)pyrimidine-5-carboxamide]
The IC50 of the first is higher: 1 to 10 µM for the first, 0.2 to 0.8 µM for the second. The second is the more potent here.

Compared with NC(=O)c1cnc(Nc2ccccc2Oc2ccccc2)nc1Nc1ccccc1 [Example B-22, 2-(2-phenoxyphenylamino)-4-(phenylamino)pyrimidine-5-carboxamide], COc1ccc(-c2ccccc2)cc1Nc1ncc(C(N)=O)c(Nc2ccccc2)n1 [Example B-29, 2-(4-methoxybiphenyl-3-ylamino)-4-(phenylamino)pyrimidine-5-carboxamide] is higher in IC50: < 0.2 µM for the first, 1 to 10 µM for the second.

Compared with NC(=O)c1cnc(Nc2cccc(F)c2)nc1Nc1ccccc1 [Example B-24, 2-(3-fluorophenylamino)-4-(phenylamino)pyrimidine-5-carboxamide], NC(=O)c1cnc(NCc2cccc(F)c2)nc1Nc1ccccc1 [Example B-39, 2-(3-fluorobenzylamino)-4-(phenylamino)pyrimidine-5-carboxamide] is higher in IC50: < 0.2 µM for the first, 0.2 to 0.8 µM for the second. The first is the more potent here.

First: CCOc1cccc(Nc2ncc(C(N)=O)c(Nc3ccccc3)n2)c1 [Example B-26, 2-(3-ethoxyphenylamino)-4-(phenylamino)pyrimidine-5-carboxamide]
Second: CCOc1ccccc1CNc1ncc(C(N)=O)c(Nc2ccccc2)n1 [Example B-54, 2-(2-ethoxybenzylamino)-4-(phenylamino)pyrimidine-5-carboxamide]
The IC50 of the first is lower: < 0.2 µM for the first, 0.8 to 1 µM for the second. The first is the more potent here.

NC(=O)c1cnc(NC2CCc3ccccc32)nc1Nc1ccccc1 (stereo not drawn) [Example B-31, 2-(2,3-dihydro-1H-inden-1-ylamino)-4-(phenylamino)pyrimidine-5-carboxamide] and CC(Nc1ncc(C(N)=O)c(Nc2ccccc2)n1)c1ccccc1 (stereo not drawn) [Example B-53, 4-(phenylamino)-2-(1-phenylethylamino)pyrimidine-5-carboxamide] fall in the same range of IC50: 0.2 to 0.8 µM for the first, 0.2 to 0.8 µM for the second.

COc1ccc(NC(C)=O)cc1Nc1ncc(C(N)=O)c(Nc2ccccc2)n1 [Example B-32, 2-(5-acetamido-2-methoxyphenylamino)-4-(phenylamino)pyrimidine-5-carboxamide] and COc1ccc(CNc2ncc(C(N)=O)c(Nc3ccccc3)n2)cc1OC [Example B-43, 2-(3,4-dimethoxybenzylamino)-4-(phenylamino)pyrimidine-5-carboxamide] fall in the same range of IC50: 0.2 to 0.8 µM for the first, 0.2 to 0.8 µM for the second.

NC(=O)c1cnc(NCC2CC2)nc1Nc1ccccc1 [Example B-35, 2-(cyclopropylmethylamino)-4-(phenylamino)pyrimidine-5-carboxamide] and NC(=O)c1cnc(NCC2CCCCC2)nc1Nc1ccccc1 [Example B-49, 2-(cyclohexylmethylamino)-4-(phenylamino)pyrimidine-5-carboxamide] fall in the same range of IC50: 0.2 to 0.8 µM for the first, 0.2 to 0.8 µM for the second.

NC(=O)c1cnc(N2CCC(C(N)=O)CC2)nc1Nc1ccccc1 [Example B-37, 2-(4-carbamoylpiperidin-1-yl)-4-(phenylamino)pyrimidine-5-carboxamide] and CC(=O)NCCNc1ncc(C(N)=O)c(Nc2ccccc2)n1 [Example B-41, 2-(2-acetamidoethylamino)-4-(phenylamino)pyrimidine-5-carboxamide] fall in the same range of IC50: 1 to 10 µM for the first, 1 to 10 µM for the second.

COc1ccc(CCNc2ncc(C(N)=O)c(Nc3ccccc3)n2)cc1 [Example B-38, 2-(4-methoxyphenethylamino)-4-(phenylamino)pyrimidine-5-carboxamide] and NC(=O)c1cnc(NCCc2cccs2)nc1Nc1ccccc1 [Example B-42, 4-(phenylamino)-2-(2-(thiophen-2-yl)ethylamino)pyrimidine-5-carboxamide] fall in the same range of IC50: 0.2 to 0.8 µM for the first, 0.2 to 0.8 µM for the second.

First: NC(=O)c1cnc(Nc2ccc(N3CCOCC3)cc2)nc1Nc1ccccc1 [Example B-40, 2-(4-morpholinophenylamino)-4-(phenylamino)pyrimidine-5-carboxamide]
Second: NC(=O)c1cnc(NC2CCN(Cc3ccccc3)CC2)nc1Nc1ccccc1 [Example B-50, 2-(1-benzylpiperidin-4-ylamino)-4-(phenylamino)pyrimidine-5-carboxamide]
The IC50 of the first is lower: < 0.2 µM for the first, 0.2 to 0.8 µM for the second.

First: NC(=O)c1cnc(NCc2cccnc2)nc1Nc1ccccc1 [Example B-51, 4-(phenylamino)-2-(pyridin-3-ylmethylamino)pyrimidine-5-carboxamide]
Second: NC(=O)c1cnc(NCc2cc(F)cc(F)c2)nc1Nc1ccccc1 [Example B-52, 2-(3,5-difluorobenzylamino)-4-(phenylamino)pyrimidine-5-carboxamide]
The IC50 of the first is lower: 0.2 to 0.8 µM for the first, 0.8 to 1 µM for the second.

From patent US12129237B2, “Substituted diaminocarboxamide and diaminocarbonitrile pyrimidines, compositions thereof, and methods of treatment therewith” (SIGNAL PHARMACEUTICALS, LLC, priority 2011, dated 2024)
